Reference: patent US5780509A, “Compound bearing two, 2,6-diiodophenol-4-YL groups and diagnostic drug for iodine allergy” (Muromachi Kagaku Kogyo Kaisha, Ltd., priority 1994, dated 1998)
Non-standard residues stand in square brackets, D forms with d. Residues, ends and D or L forms follow the SMILES beside them. No end group written: not given here. Tyr(3,5-I2) = N[C@@H](Cc1cc(I)c(O)c(I)c1)C(=O)O

Experiments:
[1] = test system: guinea-pigs immunized with iodine (iodine-sensitized) and non-sensitized guinea-pigs; test: Active cutaneous anaphylaxis (ACA) reaction, elicitation antigenicity; type: in vivo, guinea-pig (male SPF, Hartley strain); parameters: key to Mean diameter of blue spots, non-sensitized guinea-pig / Mean diameter of blue spots, iodine-sensitized guinea pig (second value) / Mean diameter of blue spots, iodine-sensitized guinea pig (first value): --: Negative response; **: Weak response; details: for Mean diameter of blue spots, iodine-sensitized guinea pig (first value) / Mean diameter of blue spots, iodine-sensitized guinea pig (second value) / Mean diameter of blue spots, non-sensitized guinea-pig: 30 min; for ACA reaction (in words): intradermal injection, guinea-pigs sensitized with iodine
Text: The elicitation antigenicity of iodinated tyrosine derivatives was studied in the bases of the active cutaneous anaphylaxis (ACA) reaction in guinea-pigs immunized with iodine.
Animals: Male SPF guinea-pigs of Hartley strain, weighing 300~350 g were purchased from Charles River Japan Co., Ltd. These were immunized after having been acclimated for one week.
Sensitization: A solution of iodine potassium iodide (Wako Junyaku, special grade reagent) and complete Freund's adjuvant (Difco) were mixed in equal amounts to form an emulsion. This was administered subcutaneously into the back of guinea-pigs at a dose of 2 mg of iodine per animal 3 times at intervals of 2 weeks. Active cutaneous anaphylaxis (ACA) was elicited 2 weeks after the last sensitization injection.
ACA Induction: 2% Evans blue physiological solution (0.5 ml/animal) was administered intravenously to guinea-pigs, and immediately thereafter 0.1 ml of an elicitation antigen was administered intradermally into the back, and after 30 min. the existence of pigment leakage at the intradermally injected sites was observed.
Elicitation antigen: Iodinated dityrosine, iodinated trityrosine, iodinated dityrosylphenylalanine were administered intracutaneously at 0.1 ml/site. Guinea-pig serum albumin (fraction V: Sigma) was iodinated and used as a positive control. Corresponding noniodinated ones were also administered intradermally as negative controls.
Iodination reaction: To a 50 mM boric acid buffer solution (pH 9.5) of 10 mg/ml of dityrosine, trityrosine, or dityrosylphenylalanine (all produced by Sigma Co., Ltd.) or guinea-pig serum albumin (abbreviated hereafter as GSA), a 0.5M solution of iodine was added at a ratio of 10:1, and these were reacted at 37 C. overnight. The excess iodine in the reaction mixture was reduced by adding sodium thiosulfate (Nakarai Chemical Co., Ltd.). For purification of the iodinated tyrosine derivatives, the reaction mixture was extracted with ethyl acetate and dried with magnesium sulfate, and hexane was added to obtain crystals. For purification of the iodinated GSA, the reaction mixture was purified by passing it through a Sephadex G25 column.

[2] = test system: anti-iodine antibody; test: ELISA inhibition potency (OD50) on anti-iodine antibody; type: binding, guinea-pig; details: serial twofold dilution, equal volume of 50-fold diluted anti-iodine antiserum; read-out: Inhibitory activity (OD50): concentration which decreased optical density of ELISA to a half of the control
Procedure: (§1) Guinea-pigs were immunized with iodine by injecting subcutaneously 1 mg of iodine containing potassium iodide solution treated with complete Freund's adjuvant seven times at intervals of 2 weeks, and anti-iodine antiserum was obtained from these animals. Antibody titers of the sera were determined by enzyme linked immunosorbent assay (ELISA) using 96 well microplate coated with iodinated guinea pig serum albumin (I-GSA) ELISA inhibition activities of the following compounds were studied. The compounds used were potassium iodide, tyrosine and its derivatives such as L-tyrosine, monoiodo-L-tyrosine, diiodotyrosine, hexaiodo-L-trityrosine, L-hexatyrosine and 12 iodo-L-hexatyrosine, and iodinated X-ray contrast media such as amidotrizoic acid, iodamide, ioxaglic acid, iohexol, iopamidol and iomeprol.
(§2) ELISA inhibition study was performed as follows. Antibody concentration of anti-iodine antiserum gave the maximum optical density in ELISA till one hundredfold serum dilution. Accordingly, seven steps of twofold serial dilution of anti-iodine antiserum, starting from 50-fold serum dilution, were made with physiological saline as a diluent. To each of the serially diluted sera, were added equal volume of solution containing each of the test compounds described above. After overnight incubation at 4 C, antibody activity was determined by ELISA. Phosphate buffered physiological saline (PBS) was used as a control. ELISA inhibitory activities of the test compounds were determined at the serum dilution which gave about 50% of the maximum optical density (OD415nm =2.6) of ELISA of control at serum dilution of one hundredfold. The inhibitory activity was calculated by the following calculation formula.
In the next, ELISA inhibition study was undertaken to determine the potency of ELISA inhibitory activity of active compounds. […] The inhibitory activity was expressed as the concentration which decreased optical density of ELISA to a half (OD50) of the control.

[3] = test system: anti-iodine antibody; test: ELISA inhibition on anti-iodine antibody (single concentration); type: binding, guinea-pig; parameters: key to ELISA inhibitory activity, judgment: +: a compound had inhibitory activity; -: a compound did not have inhibitory activity
Procedure: as §1, §2
Inhibition rate=[1-Optical density under test compouund/Optical density

N[C@@H](Cc1cc(I)c(O)c(I)c1)C(=O)N[C@@H](Cc1cc(I)c(O)c(I)c1)C(=O)O (H-[Tyr(3,5-I2)]-[Tyr(3,5-I2)]-OH)
Mean diameter of blue spots, iodine-sensitized guinea pig (first value) ([1]; 1 μg/site intradermal): -- | Mean diameter of blue spots, iodine-sensitized guinea pig (second value) ([1]; 1 μg/site intradermal): -- | Mean diameter of blue spots, non-sensitized guinea-pig ([1]; 1 μg/site intradermal): -- | Mean diameter of blue spots, iodine-sensitized guinea pig (first value) ([1]; 10 μg/site intradermal): 5.0 mm | Mean diameter of blue spots, iodine-sensitized guinea pig (second value) ([1]; 10 μg/site intradermal): -- | Mean diameter of blue spots, non-sensitized guinea-pig ([1]; 10 μg/site intradermal): -- | Mean diameter of blue spots, iodine-sensitized guinea pig (first value) ([1]; 100 μg/site intradermal): 7.0 mm | Mean diameter of blue spots, iodine-sensitized guinea pig (second value) ([1]; 100 μg/site intradermal): 5.0 mm | Mean diameter of blue spots, non-sensitized guinea-pig ([1]; 100 μg/site intradermal): -- | ACA reaction (in words) [1]: ACA reaction was elicited

N[C@@H](Cc1cc(I)c(O)c(I)c1)C(=O)N[C@@H](Cc1cc(I)c(O)c(I)c1)C(=O)N[C@@H](Cc1cc(I)c(O)c(I)c1)C(=O)N[C@@H](Cc1cc(I)c(O)c(I)c1)C(=O)N[C@@H](Cc1cc(I)c(O)c(I)c1)C(=O)N[C@@H](Cc1cc(I)c(O)c(I)c1)C(=O)O [12 iodo-L-hexatyrosine] (H-[Tyr(3,5-I2)][Tyr(3,5-I2)][Tyr(3,5-I2)][Tyr(3,5-I2)][Tyr(3,5-I2)][Tyr(3,5-I2)]-OH)
IC50 [2]: 125 µM | ELISA inhibition rate ([3]; 1 mM): 94.3% | ELISA inhibitory activity, judgment ([3]; 1 mM): +

CC(=O)Nc1c(I)c(NC(C)=O)c(I)c(C(=O)O)c1I [Amidotrizoic acid]
ELISA inhibition rate ([3]; 10 mM): 0.3% | ELISA inhibitory activity, judgment ([3]; 10 mM): -

N[C@@H](Cc1cc(I)c(O)c(I)c1)C(=O)O [Diiodo-L-tyrosine]
IC50 [2]: 5000 µM | ELISA inhibition rate ([3]; 10 mM): 100% | ELISA inhibitory activity, judgment ([3]; 10 mM): +

N[C@@H](Cc1ccc(O)cc1)C(=O)N[C@@H](Cc1ccc(O)cc1)C(=O)N[C@@H](Cc1ccccc1)C(=O)O [Dityrosylphenylalanine, L-tyrosyl-L-tyrosylphenylalanine, reference compound] (H-Tyr-Tyr-Phe-OH)
Mean diameter of blue spots, iodine-sensitized guinea pig (first value) ([1]; 1000 μg/site intradermal): -- | Mean diameter of blue spots, iodine-sensitized guinea pig (second value) ([1]; 1000 μg/site intradermal): -- | Mean diameter of blue spots, non-sensitized guinea-pig ([1]; 1000 μg/site intradermal): --

CC(=O)NCc1c(I)c(NC(C)=O)c(I)c(C(=O)O)c1I [Iodamide]
ELISA inhibition rate ([3]; 10 mM): 3.5% | ELISA inhibitory activity, judgment ([3]; 10 mM): +

N[C@@H](Cc1cc(I)c(O)c(I)c1)C(=O)N[C@@H](Cc1cc(I)c(O)c(I)c1)C(=O)N[C@@H](Cc1ccccc1)C(=O)O [Iodinated dityrosylphenylalanine] (H-[Tyr(3,5-I2)]-[Tyr(3,5-I2)]-Phe-OH)
Mean diameter of blue spots, iodine-sensitized guinea pig (first value) ([1]; 1 μg/site intradermal): -- | Mean diameter of blue spots, iodine-sensitized guinea pig (second value) ([1]; 1 μg/site intradermal): -- | Mean diameter of blue spots, non-sensitized guinea-pig ([1]; 1 μg/site intradermal): -- | Mean diameter of blue spots, iodine-sensitized guinea pig (first value) ([1]; 10 μg/site intradermal): 7.0 mm | Mean diameter of blue spots, iodine-sensitized guinea pig (second value) ([1]; 10 μg/site intradermal): -- | Mean diameter of blue spots, non-sensitized guinea-pig ([1]; 10 μg/site intradermal): -- | Mean diameter of blue spots, iodine-sensitized guinea pig (first value) ([1]; 100 μg/site intradermal): 8.0 mm | Mean diameter of blue spots, iodine-sensitized guinea pig (second value) ([1]; 100 μg/site intradermal): 3.0 mm | Mean diameter of blue spots, non-sensitized guinea-pig ([1]; 100 μg/site intradermal): -- | ACA reaction (in words) [1]: ACA reaction was elicited

CC(=O)N(CC(O)CO)c1c(I)c(C(=O)NCC(O)CO)c(I)c(C(=O)NCC(O)CO)c1I (stereo not shown) [Iohexol]
ELISA inhibition rate ([3]; 10 mM): -5.0% | ELISA inhibitory activity, judgment ([3]; 10 mM): +

CN(C(=O)CO)c1c(I)c(C(=O)NCC(O)CO)c(I)c(C(=O)NCC(O)CO)c1I (stereo not shown) [Iomeprol]
ELISA inhibition rate ([3]; 10 mM): -1.8% | ELISA inhibitory activity, judgment ([3]; 10 mM): +

C[C@H](O)C(=O)Nc1c(I)c(C(=O)NC(CO)CO)c(I)c(C(=O)NC(CO)CO)c1I [Iopamidol]
ELISA inhibition rate ([3]; 10 mM): -6.5% | ELISA inhibitory activity, judgment ([3]; 10 mM): +

CNC(=O)c1c(I)c(C(=O)NCC(=O)Nc2c(I)c(C(=O)O)c(I)c(C(=O)NCCO)c2I)c(I)c(N(C)C(C)=O)c1I [Ioxaglic acid]
ELISA inhibition rate ([3]; 10 mM): -9.4% | ELISA inhibitory activity, judgment ([3]; 10 mM): +

N[C@@H](Cc1ccc(O)cc1)C(=O)O [L-Tyrosine]
ELISA inhibition rate ([3]; 10 mM): -2.6% | ELISA inhibitory activity, judgment ([3]; 10 mM): -

N[C@@H](Cc1ccc(O)c(I)c1)C(=O)O [Monoiodo-L-tyrosine]
ELISA inhibition rate ([3]; 10 mM): 5.6% | ELISA inhibitory activity, judgment ([3]; 10 mM): -

[I-].[K+] [Potassium iodide]
ELISA inhibition rate ([3]; 10 mM): 0% | ELISA inhibitory activity, judgment ([3]; 10 mM): -

N[C@@H](Cc1ccc(O)cc1)C(=O)N[C@@H](Cc1ccc(O)cc1)C(=O)N[C@@H](Cc1ccc(O)cc1)C(=O)O [Trityrosine, trityrosine, reference compound] (H-Tyr-Tyr-Tyr-OH)
Mean diameter of blue spots, iodine-sensitized guinea pig (first value) ([1]; 1000 μg/site intradermal): -- | Mean diameter of blue spots, iodine-sensitized guinea pig (second value) ([1]; 1000 μg/site intradermal): -- | Mean diameter of blue spots, non-sensitized guinea-pig ([1]; 1000 μg/site intradermal): --

N[C@@H](Cc1ccc(O)cc1)C(=O)N[C@@H](Cc1ccc(O)cc1)C(=O)O [reference compound] (H-Tyr-Tyr-OH)
Mean diameter of blue spots, iodine-sensitized guinea pig (first value) ([1]; 1000 μg/site intradermal): -- | Mean diameter of blue spots, iodine-sensitized guinea pig (second value) ([1]; 1000 μg/site intradermal): -- | Mean diameter of blue spots, non-sensitized guinea-pig ([1]; 1000 μg/site intradermal): --

YYYYYY [L-Hexatyrosine]
ELISA inhibition rate ([3]; 1 mM): 0% | ELISA inhibitory activity, judgment ([3]; 1 mM): -
